Measurements as given in paper PMC7946689, “Galactose-Modified PH-Sensitive Niosomes for Controlled Release and Hepatocellular Carcinoma Target Delivery of Tanshinone IIA” (AAPS PharmSciTech, 2021).
Like-named read-outs stand apart in the source and are kept apart here.

Key:
[1] = set-up: method as in PMID 28680091; details: cited from earlier work
[2] = test system: HepG2 cells; assay: Cell apoptosis by flow cytometry (Annexin V-FITC/PI); format: cell-based; details: 5 μg/mL tanshinone IIA equivalent, 24 h, control 57.33%
Method: HepG2 cells were seeded in 6-well plates at a density of 2 × 10^5 cells per well for 24 h and treated with tanshinone IIA solution (Free TanIIA) and tanshinone IIA-loaded niosomes (TanIIA-NSVs, Gal-pH-TanIIA-NSVs) at an equivalent tanshinone IIA dose of 5 μg/mL for 24 h. Another group was treated with PBS for the same duration as the control group. After incubation, the cell culture medium was transferred to a 2-mL centrifuge tube, and cells digested by a trypsin-EDTA solution were added to the cell culture medium collected previously. Subsequently, the cells were mixed, transferred to a centrifuge tube, and centrifuged at 1000×g for 5 min ([34]). The supernatant was discarded, and the cells were gently resuspended with PBS and counted. A certain amount of resuspended cells were centrifuged in a similar fashion, the supernatant was discarded (PBS was removed), and 500 μL of binding buffer was added. Then, the cells were gently resuspended, and 5 μL Annexin V-FITC was added. After mixing, 5 μL propidium iodide (PI) staining solution was added to the cells, gently mixed, and incubated for 10 min in the dark at room temperature (20–25°C). Flow cytometry was then performed ([35]).

[3] = set-up: method as in PMID 28680091; details: cited from earlier work; remark: listed apart in the source
[4] = test system: Huh7 cells; assay: CCK8 cell viability assay; format: cell-based; details: Homo sapiens, Huh-7, 24 h, equivalent tanshinone IIA dose
Method: (§1) A2780, HCT8, HepG2, and Huh7 cells were seeded in 96-well plates at a density of 4 × 10^4 cells per well for 24 h ([32]) and treated with complete medium containing a series of blank niosomes (NSVs, Gal-NSVs, pH-NSVs, Gal-pH-NSVs) for 24 h. Subsequently, the culture medium was discarded, and CCK8 solution was added to the cells. Then, cells were continuously cultured for 2 h at 37°C. The absorbance value of each well was measured at 450 nm by a microplate spectrophotometer (BIO-RAD xMark, USA). The control group and blank group were included in the experiment. […] Cell viability was calculated according to the following formula ([33]): Cell viability%=Atest−Ao/Acontrast−Ao×100%
(§2) In the formula, Atest is the absorbance value of the test group, Acontrast is the absorbance value of the control group, and A0 is the absorbance value of the blank group.
(§3) A2780, HCT8, HepG2, and Huh7 cells were seeded in 96-well plates for 24 h and treated with serial concentrations of tanshinone IIA solution (Free TanIIA) and tanshinone IIA-loaded niosomes (TanIIA-NSVs, Gal-TanIIA-NSVs, pH-TanIIA-NSVs, Gal-pH-TanIIA-NSVs) at an equivalent tanshinone IIA dose for 24 h. Then, the culture medium was discarded, CCK8 solution was added to the cells, and cells were continuously cultured for 2 h at 37°C. The absorbance value of each well was measured at 450 nm by a microplate spectrophotometer ([33]).

[5] = test system: A2780 cells; assay: CCK8 cell viability assay; format: cell-based; details: Homo sapiens, 24 h, equivalent tanshinone IIA dose
Method: as §1, §2, §3

[6] = test system: HepG2 cells; assay: CCK8 cell viability assay; format: cell-based; details: Homo sapiens, 24 h, equivalent tanshinone IIA dose
Method: as §1, §2, §3

[7] = test system: HCT8 cells; assay: CCK8 cell viability assay; format: cell-based; details: Homo sapiens, HCT-8, 24 h, equivalent tanshinone IIA dose
Method: as §1, §2, §3

[8] = Pharmacokinetics after tail vein injection; format: in vivo; details: SD rats
Method: Twelve male SD rats (weighing 200–250 g) were randomly divided into three groups. Rats were fasted for 12 h but drank water freely before administration ([38]). The first, second, and third groups were injected with Free TanIIA, TanIIA-NSVs, and Gal-pH-TanIIA-NSVs at an equivalent tanshinone IIA dose of 10 mg/kg via tail vein, respectively. Orbital blood was taken at 0.083, 0.25, 0.5, 1, 2, 4, 6, 8, 12, and 24 h after administration. Blood was transferred to a centrifuge tube coated with heparin sodium and centrifuged at 9391.2×g for 5 min to prepare plasma that was stored at −20°C ([39]).
After treatment of plasma and tissue homogenate, the obtained supernatant was concentrated by nitrogen blowing and determined by HPLC.

[9] = Biodistribution after tail vein injection; format: in vivo; details: SD rats, 10 mg/kg, all time periods tested (0.083, 4, 12 h)
Method: Twenty-seven male SD rats were randomly divided into three groups and administered in the same way. Rats were sacrificed after 0.083, 4, and 12 h, respectively, and heart, liver, spleen, lung, and kidney tissues were collected immediately. Any residual blood on the tissue was washed with precooled normal saline, and the washed tissue was blotted up with filter paper and weighed. The tissue was then homogenized in 5 times the mass of precooled normal saline. Homogenized tissue samples were centrifuged at 9391.2×g for 5 min to separate the tissue homogenate and were stored at −20°C ([39]). After treatment of plasma and tissue homogenate, the obtained supernatant was concentrated by nitrogen blowing and determined by HPLC.

[10] = test system: HepG2 cells; assay: Cell cycle by flow cytometry (PI); format: cell-based; details: 5 μg/mL tanshinone IIA equivalent, 24 h, control 28.98%
Method: The test method was performed according to the method provided with the apoptosis test until two centrifugations were completed, and the supernatant was discarded. Next, 1 mL of ice bath precooled 70% ethanol was added to fix the cells for 24 h at 4°C, then, the fixed cells were centrifuged at 1000×g for 5 min ([36]). After resuspending the cells, the cells were centrifuged and precipitated again, and the supernatant was discarded. A total of 500 μL PI staining solution was added to the cells, and the cells were slowly and sufficiently resuspended and bathed for 30 min in the dark at 37°C. Flow cytometry was completed within 24 h after staining ([37]).

[11] = 10 mg/kg tanshinone IIA equivalent, tail vein

IC50 [4]: 2.5 µg/mL | IC50 [5]: 2.44 µg/mL | IC50 [6]: 2.26 µg/mL | IC50 [7]: 2.42 µg/mL | Plasma concentration by HPLC ([8]; 12 h after injection, 10 mg/kg): could not be detected | AUC0–t [8, 11]: 7.70 ± 1.51 (μg/mL)·h | AUC0–∞ [8, 11]: 8.81 ± 1.65 (μg/mL)·h | CL [8, 11]: 0.284 ± 0.026 (mg)/(μg/mL)/h | Vd [8, 11]: 1.26 ± 0.09 (mg)/(μg/mL) | half-life ([8]; male, rat, plasma, iv, 10 mg/kg tanshinone IIA equivalent, tail vein): 185 ± 35.4 min | MRT last ([8]; male, rat, plasma, iv, 10 mg/kg tanshinone IIA equivalent, tail vein, read-out: MRT0–t): 2.23 ± 0.2 h | MRT inf ([8]; male, rat, plasma, iv, 10 mg/kg tanshinone IIA equivalent, tail vein, read-out: MRT0–∞): 3.53 ± 0.63 h | Drug level in kidney tissue [9]: relatively high drug levels
SMILES: Cc1coc2c1C(=O)C(=O)c1c-2ccc2c1CCCC2(C)C [Free TanIIA, Tanshinone IIA]
half-life [1]: short half-life | Apoptotic rate (early + late apoptosis) [2]: 78.34% | Solubility in water [3]: insolubility in water | S phase distribution [10]: 50.53%
